Results: the supplement of paper PMC10307832

Assays:
Test in all cases: relative viability (nuclei count vs DMSO), 5 days (fraction); higher = more cells survive
[1] = compound: CN[C@@H]1C[C@H]2O[C@@](C)([C@@H]1OC)n1c3ccccc3c3c4c(c5c6ccccc6n2c5c31)C(=O)NC4 [Staurosporine] + COc1cc2c(Oc3ccc(NC(=O)C4(C(=O)Nc5ccc(F)cc5)CC4)cc3F)ccnc2cc1OCCCN1CCOCC1 [Foretinib] (partner 0.25 µM)
Procedure, shortened: (§1)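 One day after seeding in 1536-well plates, lung cancer cell lines were dosed by pin tool. Dosing was either single-drug or a fixed anchor-drug dose plus five library-drug doses (not always all listed) in √10 steps. After 5 days, nuclei were stained in one fix-and-stain step and counted on 4× images, and relative viability is the nuclei count of treated wells over that of vehicle wells, given as the median of duplicate plates.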

[2] = compound: O=c1[nH]cc(F)c(=O)[nH]1 [5-Fluorouracil] + CC(C)C[C@H](NC(=O)[C@H](Cc1ccccc1)NC(=O)c1cnccn1)B(O)O [Bortezomib] (partner 0.002 µM)
Procedure, shortened: as §1

Sulindac + Foretinib = compound: CC1=C(CC(=O)O)c2cc(F)ccc2/C1=C\c1ccc([S+](C)[O-])cc1 [Sulindac] + COc1cc2c(Oc3ccc(NC(=O)C4(C(=O)Nc5ccc(F)cc5)CC4)cc3F)ccnc2cc1OCCCN1CCOCC1 [Foretinib] (partner 0.25 µM)
Procedure, shortened: as §1

[3] = compound: O=c1[nH]cc(F)c(=O)[nH]1 [5-Fluorouracil] + CCNC(=O)c1noc(-c2cc(C(C)C)c(O)cc2O)c1-c1ccc(CN2CCOCC2)cc1 [Luminespib] (partner 0.01 µM)
Procedure, shortened: as §1

Cell Line | relative viability ([1]; first compound 0.005 µM) | relative viability ([1]; first compound 0.01581 µM) | relative viability ([1]; first compound 0.05 µM) | relative viability ([1]; first compound 0.1581 µM) | relative viability ([1]; first compound 0.5 µM) | relative viability ([2]; first compound 0.02 µM) | relative viability ([2]; first compound 0.2 µM) | relative viability ([2]; first compound 0.6325 µM) | relative viability ([2]; first compound 2 µM) | relative viability (Sulindac + Foretinib; first compound 0.08 µM) | relative viability (Sulindac + Foretinib; first compound 0.253 µM) | relative viability (Sulindac + Foretinib; first compound 0.8 µM) | relative viability (Sulindac + Foretinib; first compound 2.53 µM) | relative viability (Sulindac + Foretinib; first compound 8 µM) | relative viability ([3]; first compound 0.02 µM) | relative viability ([3]; first compound 0.2 µM) | relative viability ([3]; first compound 0.6325 µM) | relative viability ([3]; first compound 2 µM)
LCLC-97TM1 | 0.988 | 0.558 | 0.454 | 0.382 | 0.461 | 0.53 | 1.03 | 0.396 | 0.12 | 0.939 | 0.992 | 0.804 | 0.803 | 0.962 | 0.627 | 0.808 | 0.613 | 0.334
NCI-H1299 | 0.893 | 0.352 | 0.231 | 0.121 | 0.132 | 1.07 | 1.05 | 1.04 | 0.959 | 1.13 | 1.09 | 1.06 | 1.02 | 1.15 | – | – | – | –
NCI-H322M | 0.95 | 0.759 | 0.536 | 0.357 | 0.288 | 1.44 | 1.17 | 1.03 | 0.652 | 0.992 | 0.996 | 0.882 | 0.954 | 1 | 0.841 | 1 | 0.724 | 0.552
NCI-H1395 | 0.943 | 0.812 | 0.453 | 0.416 | 0.27 | – | – | – | – | 0.845 | 1.02 | 0.949 | 0.906 | 1.1 | 0.638 | 0.675 | 0.743 | 0.658
NCI-H2023 | 0.526 | – | 0.174 | 0.107 | 0.0611 | 0.803 | 0.214 | 0.11 | 0.0857 | 0.969 | 0.867 | 0.715 | 0.821 | 1.07 | 0.844 | 0.154 | 0.106 | 0.0768
NCI-H1651 | 0.74 | 0.615 | 0.346 | 0.259 | 0.0644 | 1.05 | 0.873 | 0.464 | 0.406 | 0.899 | 0.848 | – | 0.764 | 0.88 | 1.02 | 0.764 | 0.588 | 0.466
HARA | 0.77 | – | 0.327 | 0.184 | 0.258 | 1.17 | 1.15 | 1.08 | 1.03 | 1.28 | 1.05 | 0.991 | 0.819 | 1.1 | 0.964 | 0.739 | 0.705 | 0.509
NCI-H1944 | 0.756 | – | 0.431 | 0.39 | 0.251 | – | – | – | – | 0.962 | 0.874 | 0.822 | 0.974 | 1.03 | 0.73 | 0.625 | 0.3 | 0.185
NCI-H2405 | 0.675 | 0.302 | – | 0.105 | 0.0788 | 0.943 | 1.02 | 0.96 | 0.681 | 1.03 | 1.08 | 0.981 | 1.03 | 1.09 | 0.707 | 0.786 | 0.676 | 0.693
201T | 0.881 | 0.896 | 0.518 | 0.314 | 0.159 | 1.11 | 1.04 | 0.417 | 0.346 | 1.1 | 1.08 | – | – | 1.22 | 1.03 | 0.809 | 0.352 | 0.301
Calu-6 | 0.75 | 0.456 | 0.254 | 0.0642 | 0.0391 | 0.984 | 0.947 | 0.801 | 0.42 | 1.02 | 0.916 | 0.846 | 0.893 | 1.08 | – | – | – | –
NCI-H1623 | 0.967 | 0.643 | 0.925 | 0.731 | 0.341 | – | – | – | – | 0.875 | 0.779 | 0.637 | 0.873 | 0.923 | 0.395 | 0.361 | 0.412 | 0.364
HCC-366 | 1.07 | – | 0.799 | 0.105 | 0.303 | 1.08 | 0.946 | 0.523 | 0.0524 | 0.838 | 0.964 | 0.999 | 0.994 | 0.998 | – | – | – | –
HCC-44 | – | – | – | – | – | 0.931 | 0.84 | 0.601 | 0.35 | – | – | – | – | – | 1.29 | 1.22 | 0.853 | 0.355
NCI-H522 | – | – | – | – | – | – | – | – | – | – | – | – | – | – | 1.14 | 1.19 | 1.17 | 0.961
SW 900 | 0.388 | 0.331 | 0.406 | 0.22 | 0.144 | – | – | – | – | – | 0.645 | – | 0.948 | 1.11 | 0.153 | 0.161 | 0.213 | 0.196
LK-2 | 1.07 | – | 1.09 | 0.437 | 0.409 | – | – | – | – | 1.73 | 1.45 | – | – | 1.21 | – | – | – | –
SK-MES-1 | 0.626 | 0.581 | 0.293 | 0.333 | 0.142 | – | – | – | – | 1.13 | 1.38 | 0.372 | 0.88 | 1.02 | 1.07 | 0.606 | 0.349 | 0.255
NCI-H1793 | 0.784 | – | 0.474 | 0.217 | 0.353 | – | – | – | – | 0.759 | 0.808 | 0.54 | 0.748 | 0.736 | 0.205 | 0.183 | 0.203 | 0.176
IA-LM | 0.423 | 0.109 | 0.139 | 0.1 | 0.0733 | 0.766 | 0.327 | 0.193 | 0.141 | 1.23 | 1.19 | – | 1.2 | 1.3 | – | – | – | –
A549 | 0.675 | 0.268 | 0.297 | 0.0276 | 0.0246 | – | – | – | – | 1.04 | 1.12 | 0.653 | 0.975 | 1.12 | – | – | – | –
NCI-H1792 | – | – | – | – | – | 1.03 | 0.84 | 0.272 | 0.185 | – | – | – | – | – | 0.616 | 0.439 | 0.262 | 0.182
NCI-H358 | 0.835 | 0.241 | 0.11 | 0.0647 | 0.0577 | – | – | – | – | 0.85 | 0.763 | 0.572 | 0.621 | 0.826 | 0.388 | 0.307 | 0.308 | 0.145
